Laboratory results reported in US9119848B2, “Morphinan derivatives for the treatment of drug overdose” (Alkermes Pharma Ireland Limited, priority 2009, dated 2015).

How the values were obtained:
[1] = Elimination of Compound-1 in study subjects
[2] = system: opioid dependent, opioid experienced subject; experiment: Compound-1 after REMI challenge in an opioid dependent, opioid experienced subject; settings: 10 mg on Day 2, one opioid dependent subject

**Q.** With `NC(=O)c1ccc2c(c1O)[C@]13CCN(CC4CC4)[C@H](C2)[C@]1(O)CCC(=O)C3` [Compound-1] as the compound, how does the “fraction of Compound-1 eliminated” value ([1]; by 4 days post-dose) read?
**A.** more than 99%

**Q.** And the half-life ([1]; human, in vivo, 20 mg)?
**A.** 7 h

**Q.** What about the “time to severe drug withdrawal post-dosing” value [2] of the same compound?
**A.** 2 min
